Results as given in patent publication US20050215548A1 (Cyclacel Limited, priority 2002, published 2005).
pIC50: −log10 of the molar value.

Experiments:
Format in all cases: cell-based, human
AGS cells = experiment: Caspase activity (casp ACE assay), AGS; conditions: five times the IC50, compared with cisplatin treatment
Experimental: In more detail: (A) Cells were treated with […] [IC50] of compound 2 or cisplatinum and collected at the time points indicated. Cell lysates were prepared, the caspase activity was determined using the casp ACE assay and values were plotted on a graph. (B) Cells were treated with 5 times [IC50] of compound 2 or cisplatinum and collected at the time points indicated. AGS cells were also incubated with compound 2 in the presence of a caspase inhibitor Z-VAD.fmk. Cell lysates were prepared, the caspase activity was determined using the casp ACE assay and values were plotted on a graph.
To characterise the apoptosis-inducing properties of bisarylsulfonamides caspase ⅓ activty was measured. AGS or H1299 cells were treated with a low concentration of compound 2 or cisplatin corresponding to twice the IC50 value (FIG. 6A). Morphological changes were detected in 10-20% of cells by 72 hours corresponding to an induction of caspase activity first detected at 48 hours, increasing by 72 hours. We also treated AGS and H1299 cells with higher concentrations corresponding to five times the IC50 (FIG. 6B). In this experiment we included a […], Z-VAD.fmk to determine the caspase responsible.

AGS = experiment: Combination treatment with cisplatin or etoposide, MTT, AGS
Excerpt: (§1) It is well established that radiotherapy and most current forms of chemotherapy cause extensive genetic damage and induction of the p53-dependent apoptotic pathway, which determines the important role of this tumor suppressor protein in cancer therapy. HDM2, on the other hand, as a transcriptional product and negative regulator pf p53, would destabilise p53 and diminish its pro-apoptotic function. Inhibitors of the p53-HDM2 negative feedback loop (e.g. compounds disrupting the p53-HDM2 complex) are expected to synergise with cytotoxic agents for induction of p53 and subsequent apoptosis. […] Both chemotherapeutic agents were used in the concentration range of 100-0.19 μM.

H1299 = experiment: Combination treatment with cisplatin or etoposide, MTT, H1299
Excerpt: as §1

[1] = tested on: key proteins in the HDM2 pathway; experiment: SDS-PAGE and immunoblotting of key proteins in the HDM2 pathway
Excerpt: Equal amounts of cell lysate were separated by SDS-PAGE and analysed by immunoblotting using the indicated antibodies. An estimation of the extent of cell rounding is indicated above each lane. […] (B) The effect of compound 2 on the levels of the cell cycle proteins in AGS cells (wild-type 53). […] Equal amounts of cell lysate were separated by SDS-PAGE and analysed by immunoblotting using the indicated antibodies. An estimation of the extent of cell rounding is indicated above each lane. (C) The effect of negative control compound (refer Example 10), compound 2, cisplatin, and anisomycin on the levels of key proteins in MCF7 cells. […] Cisplatinum and anisomycin (a transcription inhibitor) treatments were with 50 μM or 37 μM, respectively. Cells were harvested at various time points; afterwards lysates were prepared and separated by SDS-PAGE and analysed by immunoblotting. The proteins detected are indicated. The extent of rounded or floating cells and the percentage viable cells were assessed. […] Equal amounts of cell lysate were separated by SDS-PAGE and analysed by immunoblotting using a range of antibodies. An estimation of the extent of cell rounding is indicated above each lane. […] SJSA1 cells were treated with 5 times [IC50] of compound 2 and collected at the indicated time points. Equal amounts of cell lysate were separated by SDS-PAGE and analysed by immunoblotting using a range of antibodies. An estimation of the extent of cell rounding is indicated above each lane.
Many types of cellular stress converge on the p53 pathway and induce its activity. […] The biological effect of bisarylsufonamides on cellular level was studies using representative compounds (mainly compound 2) and number of cell lines with different HDM2 and p53 status. These were overexpressing Hdm2 (SJSA1—osteosarcoma), wild type p53 and normal levels of HDM2 (AGS—gastric adenocarcinoma, MCF7—breast adenocarcinoma), or p53 null, low levels of HDM2 (H1299—large cell lung carcinoma).
Cells were lysed and equal amounts were analysed by SDS-polyacrylamide gel electrophoresis (SDS-PAGE) and immunoblotting.

[2] = 2 added 6 hours before etoposide
[3] = 2 added prior to the treatment with cisplatin

IC50 of etoposide, fold lower in cells pre-treated with 2 (AGS; [2]): 3.5 fold
pIC50 (AGS; Homo sapiens, MTT, 72 hours, Table 5, read-out: IC50, agent alone): 5.96
IC50 of etoposide, fold lower in cells pre-treated with 2 (H1299; [2]): 25 fold
pIC50 (H1299; Homo sapiens, NCI-H1299, MTT, 72 hours, Table 5, read-out: IC50, agent alone): 5.29
SMILES: O=[N+]([O-])c1cc(S(=O)(=O)Nc2ccc(Cl)cc2)sc1Cl [Compound 2, 5-Chloro-4-nitrothiophene-2-sulfonic acid (4-chlorophenyl)-amide]
caspase activity (AGS cells): only weak caspase activity was induced by 24 hours
potency increase of cisplatin (AGS; [3]): 18.5 fold
potency increase of cisplatin (H1299; [3]): 16 fold
HDM2 and E2F-1 protein levels ([1]; AGS, H1299, MCF7 or SJSA1 cells, five times the anti-proliferative IC50): rapid reduction in HDM2 and E2F-1 levels
JNK phosphorylation ([1]; MCF7 cells): transient induction in JNK phosphorylation
p38 MAPK pathway induction ([1]; MCF7 cells): no clear induction of the p38 MAPK pathway
p53 level and p53 phosphorylation at serine 15 ([1]; compound 2: AGS, H1299, MCF7 or SJSA1 cells, etoposide or cisplatinum: AGS or MCF7 cells): no induction of p53 nor p53 phosphorylation at serine 15
PARP cleavage / PARP levels ([1]; five times IC50, 85-kDa cleavage product marker for apoptosis): very rapid in H1299 cells but less so in AGS, MCF7 or SJSA1 cells
